Experiments:
[1] = xn = mol fraction of the nth substance listed; settings: 101 kPa, Liquid
[2] = refractive index (Na D-line) (dimensionless); xn = mol fraction of the nth substance listed; settings: 101 kPa, Liquid

COc1ccccc1 [anisole] + C[S+](C)[O-]
Settings | mass density, 298.15 K [kg/m3] | mass density, 303.15 K [kg/m3] | mass density, 308.15 K [kg/m3] | refractive index, 298.15 K | refractive index, 303.15 K | refractive index, 308.15 K | speed of sound, 298.15 K [m/s] | viscosity, 298.15 K [mPa·s] | viscosity, 303.15 K [mPa·s] | viscosity, 308.15 K [mPa·s]
[1], x1 = 0.0938 | 1081.5 | 1077 | 1072.3 | – | – | – | 1487 | 1.836 | 1.683 | 1.529
[1], x1 = 0.2016 | 1066.7 | 1062.1 | 1057.6 | – | – | – | 1477 | 1.691 | 1.549 | 1.407
[1], x1 = 0.3025 | 1054.4 | 1049.9 | 1045.3 | – | – | – | 1468 | 1.565 | 1.438 | 1.31
[1], x1 = 0.3987 | 1043.6 | 1039.2 | 1034.7 | – | – | – | 1462 | 1.466 | 1.347 | 1.228
[1], x1 = 0.5074 | 1032.5 | 1027.9 | 1023.6 | – | – | – | 1454 | 1.369 | 1.268 | 1.166
[1], x1 = 0.594 | 1024.1 | 1019.7 | 1015.1 | – | – | – | 1445 | 1.318 | 1.219 | 1.119
[1], x1 = 0.6956 | 1014.7 | 1010.3 | 1005.7 | – | – | – | 1437 | 1.249 | 1.152 | 1.054
[1], x1 = 0.7988 | 1005.5 | 1001.4 | 996.7 | – | – | – | 1428 | 1.157 | 1.073 | 0.989
[1], x1 = 0.8933 | 997.4 | 992.8 | 988.5 | – | – | – | 1421 | 1.077 | 1.004 | 0.931
[1], x1 = 1 | 988.9 | 984.1 | 979.4 | – | – | – | 1410 | 0.992 | 0.919 | 0.853
[2], x1 = 0.0938 | – | – | – | 1.4817 | 1.4772 | 1.4727 | – | – | – | –
[2], x1 = 0.2016 | – | – | – | 1.4878 | 1.4853 | 1.4828 | – | – | – | –
[2], x1 = 0.3025 | – | – | – | 1.4929 | 1.4901 | 1.4873 | – | – | – | –
[2], x1 = 0.3987 | – | – | – | 1.4962 | 1.4935 | 1.4906 | – | – | – | –
[2], x1 = 0.5074 | – | – | – | 1.4996 | 1.4974 | 1.4952 | – | – | – | –
[2], x1 = 0.594 | – | – | – | 1.5031 | 1.5006 | 1.498 | – | – | – | –
[2], x1 = 0.6956 | – | – | – | 1.5069 | 1.5043 | 1.5017 | – | – | – | –
[2], x1 = 0.7988 | – | – | – | 1.5105 | 1.5075 | 1.5046 | – | – | – | –
[2], x1 = 0.8933 | – | – | – | 1.5124 | 1.5096 | 1.5069 | – | – | – | –
[2], x1 = 1 | – | – | – | 1.5148 | 1.5124 | 1.5092 | – | – | – | –

COc1ccccc1 [anisole] + ClC(Cl)=C(Cl)Cl
x1 = 1
Settings | mass density, 298.15 K [kg/m3] | mass density, 303.15 K [kg/m3] | mass density, 308.15 K [kg/m3] | refractive index, 298.15 K | refractive index, 303.15 K | refractive index, 308.15 K | speed of sound, 298.15 K [m/s] | viscosity, 298.15 K [mPa·s] | viscosity, 303.15 K [mPa·s] | viscosity, 308.15 K [mPa·s]
[1] | 988.9 | 984.1 | 979.4 | – | – | – | 1410 | 0.992 | 0.919 | 0.853
[2] | – | – | – | 1.5148 | 1.5124 | 1.5092 | – | – | – | –

COc1ccccc1 [anisole] + ClC(Cl)C(Cl)Cl
x1 = 1
Settings | mass density, 298.15 K [kg/m3] | mass density, 303.15 K [kg/m3] | mass density, 308.15 K [kg/m3] | refractive index, 298.15 K | refractive index, 303.15 K | refractive index, 308.15 K | speed of sound, 298.15 K [m/s] | viscosity, 298.15 K [mPa·s] | viscosity, 303.15 K [mPa·s] | viscosity, 308.15 K [mPa·s]
[1] | 988.9 | 984.1 | 979.4 | – | – | – | 1410 | 0.992 | 0.919 | 0.853
[2] | – | – | – | 1.5148 | 1.5124 | 1.5092 | – | – | – | –

COc1ccccc1 [anisole] + OCCCl
x1 = 1
Settings | mass density, 298.15 K [kg/m3] | mass density, 303.15 K [kg/m3] | mass density, 308.15 K [kg/m3] | refractive index, 298.15 K | refractive index, 303.15 K | refractive index, 308.15 K | speed of sound, 298.15 K [m/s] | viscosity, 298.15 K [mPa·s] | viscosity, 303.15 K [mPa·s] | viscosity, 308.15 K [mPa·s]
[1] | 988.9 | 984.1 | 979.4 | – | – | – | 1410 | 0.992 | 0.919 | 0.853
[2] | – | – | – | 1.5148 | 1.5124 | 1.5092 | – | – | – | –

CCOC(=O)C(=O)OCC [diethyl ethanedioate] + COc1ccccc1
Settings | mass density, 298.15 K [kg/m3] | mass density, 303.15 K [kg/m3] | mass density, 308.15 K [kg/m3] | refractive index, 298.15 K | refractive index, 303.15 K | refractive index, 308.15 K | speed of sound, 298.15 K [m/s] | viscosity, 298.15 K [mPa·s] | viscosity, 303.15 K [mPa·s] | viscosity, 308.15 K [mPa·s]
[1], x2 = 0 | 1072.3 | 1066.6 | 1060.7 | – | – | – | 1267 | 1.844 | 1.659 | 1.508
[1], x2 = 0.1017 | 1065.8 | 1060.1 | 1054.3 | – | – | – | 1280 | 1.732 | 1.578 | 1.424
[1], x2 = 0.1976 | 1059.5 | 1053.8 | 1048.1 | – | – | – | 1293 | 1.64 | 1.497 | 1.354
[1], x2 = 0.2978 | 1052.6 | 1047.1 | 1041.4 | – | – | – | 1307 | 1.55 | 1.416 | 1.282
[1], x2 = 0.3621 | 1047.7 | 1042.3 | 1036.7 | – | – | – | 1316 | 1.495 | 1.367 | 1.239
[1], x2 = 0.4971 | 1037.4 | 1031.9 | 1026.5 | – | – | – | 1334 | 1.38 | 1.265 | 1.149
[1], x2 = 0.5975 | 1029.1 | 1023.8 | 1018.5 | – | – | – | 1348 | 1.301 | 1.195 | 1.089
[1], x2 = 0.6977 | 1020.1 | 1014.9 | 1009.7 | – | – | – | 1362 | 1.223 | 1.126 | 1.03
[1], x2 = 0.8016 | 1010.1 | 1005.3 | 1000 | – | – | – | 1377 | 1.14 | 1.054 | 0.968
[1], x2 = 0.9007 | 999.9 | 995.4 | 990.2 | – | – | – | 1393 | 1.061 | 0.985 | 0.91
[2], x2 = 0 | – | – | – | 1.4084 | 1.4061 | 1.4039 | – | – | – | –
[2], x2 = 0.1017 | – | – | – | 1.4171 | 1.4148 | 1.4124 | – | – | – | –
[2], x2 = 0.1976 | – | – | – | 1.4257 | 1.4232 | 1.4207 | – | – | – | –
[2], x2 = 0.2978 | – | – | – | 1.435 | 1.4325 | 1.43 | – | – | – | –
[2], x2 = 0.3621 | – | – | – | 1.4412 | 1.4388 | 1.4362 | – | – | – | –
[2], x2 = 0.4971 | – | – | – | 1.4551 | 1.4525 | 1.4499 | – | – | – | –
[2], x2 = 0.5975 | – | – | – | 1.466 | 1.4634 | 1.4607 | – | – | – | –
[2], x2 = 0.6977 | – | – | – | 1.4773 | 1.4746 | 1.4718 | – | – | – | –
[2], x2 = 0.8016 | – | – | – | 1.4896 | 1.4868 | 1.484 | – | – | – | –
[2], x2 = 0.9007 | – | – | – | 1.5021 | 1.4991 | 1.4962 | – | – | – | –

C[S+](C)[O-] [dimethyl sulfoxide] + COc1ccccc1
x2 = 0
Settings | mass density, 298.15 K [kg/m3] | mass density, 303.15 K [kg/m3] | mass density, 308.15 K [kg/m3] | refractive index, 298.15 K | refractive index, 303.15 K | refractive index, 308.15 K | speed of sound, 298.15 K [m/s] | viscosity, 298.15 K [mPa·s] | viscosity, 303.15 K [mPa·s] | viscosity, 308.15 K [mPa·s]
[1] | 1095.4 | 1090.8 | 1086.2 | – | – | – | 1493 | 1.984 | 1.801 | 1.651
[2] | – | – | – | 1.4768 | 1.4594 | 1.4547 | – | – | – | –

CN(C)C=O [dimethylformamide] + COc1ccccc1
x2 = 0
Settings | mass density, 298.15 K [kg/m3] | mass density, 303.15 K [kg/m3] | mass density, 308.15 K [kg/m3] | refractive index, 298.15 K | refractive index, 303.15 K | refractive index, 308.15 K | speed of sound, 298.15 K [m/s] | viscosity, 298.15 K [mPa·s] | viscosity, 303.15 K [mPa·s] | viscosity, 308.15 K [mPa·s]
[1] | 943.9 | 939.5 | 935 | – | – | – | 1462 | 0.801 | 0.754 | 0.711
[2] | – | – | – | 1.4288 | 1.4264 | 1.4238 | – | – | – | –
